The numbers were not newly measured in patent US20090304576A1, “DEVICE FOR DELIVERY OF ANTI-CANCER AGENTS TO TISSUE” (priority 2006, published 2009), which cites them from elsewhere.

For this data set the following is noted: diffusion in solid tissue such as brain; estimated.

With `O=NN(CCCl)C(=O)NCCCl` [carmustine], the “maximum effective range from a source” value is listed as “about 5 mm”.
